≈ marks a conversion by molar mass, not a printed value.
Key:
[1] = tested on: L. pneumophila serogroup 2; experiment: microbe, parasite or virus in culture; type: cell-based; details: Legionella pneumophila; for MIC: 48 h, read-out: MIC Range
[2] = tested on: L. longbeacheae; experiment: organism not typed; type: cell-based; details: for MIC: 48 h, read-out: MIC Range
[3] = tested on: L. micadadei; experiment: organism not typed; type: cell-based, L. micdadei; details: for MIC: 48 h, read-out: MIC Range
[4] = tested on: L. pneumophila serogroup 7; experiment: microbe, parasite or virus in culture; type: cell-based; details: Legionella pneumophila; for MIC: 48 h, read-out: MIC Range
[5] = tested on: L. pneumophila serogroup 4; experiment: microbe, parasite or virus in culture; type: cell-based; details: Legionella pneumophila; for MIC: 48 h, read-out: MIC Range
[6] = tested on: L. pneumophila serogroup 1; experiment: microbe, parasite or virus in culture; type: cell-based, Legionella pneumophila; details: Legionella pneumophila; for MIC: 48 h, read-out: MIC Range; for MIC90: L. pneumophila serogroup 1 (n = 85)
[7] = tested on: L. pneumophila serogroup 3; experiment: microbe, parasite or virus in culture; type: cell-based; details: Legionella pneumophila; for MIC: 48 h, read-out: MIC Range
[8] = tested on: Erythromycin-susceptible Legionella spp. other than L. pneumophila; type: cell-based; details: Erythromycin-susceptible Legionella spp. (n = 13); 4 × MIC; mean ± SD
[9] = tested on: Other Legionella spp.; experiment: microbe, parasite or virus in culture; type: cell-based; details: for MIC: 48 h, read-out: MIC Range
[10] = tested on: Erythromycin-susceptible L. pneumophila; type: cell-based, Legionella pneumophila; details: Erythromycin-susceptible L. pneumophila (n = 15); 4 × MIC; mean ± SD
[11] = tested on: L. pneumophila serogroup 5; experiment: microbe, parasite or virus in culture; type: cell-based; details: Legionella pneumophila; for MIC: 48 h, read-out: MIC Range
[12] = tested on: L. pneumophila serogroup 6; experiment: microbe, parasite or virus in culture; type: cell-based; details: Legionella pneumophila; for MIC: 48 h, read-out: MIC Range
[13] = tested on: L. pneumophila serogroup 8, 9; experiment: microbe, parasite or virus in culture; type: cell-based; details: Legionella pneumophila; for MIC: 48 h, read-out: MIC Range
[14] = tested on: L. dumoffii; experiment: organism not typed; type: cell-based; details: for MIC: 48 h, read-out: MIC Range

| Structure (SMILES) | MIC50 [1] | MIC90 [1] | MIC [1] | MIC50 [2] | MIC90 [2] | MIC [2] | MIC50 [3] | MIC90 [3] | MIC [3] | MIC50 [4] | MIC90 [4] | MIC [4] | MIC50 [5] | MIC90 [5] | MIC [5] | MIC50 [6] | MIC [6] | MIC90 [6] | MIC50 [7] | MIC90 [7] | other results |
| --- | --- | --- | --- | --- | --- | --- | --- | --- | --- | --- | --- | --- | --- | --- | --- | --- | --- | --- | --- | --- | --- |
| CC[C@H]1OC(=O)[C@H](C)[C@@H](O[C@H]2C[C@@](C)(OC)[C@@H](O)[C@H](C)O2)[C@H](C)[C@@H](O[C@@H]2O[C@H](C)C[C@H](N(C)C)[C@H]2O)[C@](C)(O)C[C@@H](C)CN(C)[C@H](C)[C@@H](O)[C@]1(C)O [Azithromycin] | 0.06 µg/mL (≈ 0.0801 µM) | 0.12 µg/mL (≈ 0.16 µM) | 0.008 to 0.12 µg/mL (≈ 0.0107 to 0.16 µM) | 0.12 µg/mL (≈ 0.16 µM) | 0.25 µg/mL (≈ 0.334 µM) | 0.016 to 0.25 µg/mL (≈ 0.0214 to 0.334 µM) | 0.25 µg/mL (≈ 0.334 µM) | 0.25 µg/mL (≈ 0.334 µM) | 0.016 to 0.25 µg/mL (≈ 0.0214 to 0.334 µM) | 0.06 µg/mL (≈ 0.0801 µM) | 0.06 µg/mL (≈ 0.0801 µM) | 0.06 µg/mL (≈ 0.0801 µM) | 0.12 µg/mL (≈ 0.16 µM) | 0.12 µg/mL (≈ 0.16 µM) | 0.008 to 0.25 µg/mL (≈ 0.0107 to 0.334 µM) | 0.06 µg/mL (≈ 0.0801 µM) | 0.008 to 1 µg/mL (≈ 0.0107 to 1.34 µM) | 0.5 µg/mL (≈ 0.668 µM) | 0.12 µg/mL (≈ 0.16 µM) | 0.25 µg/mL (≈ 0.334 µM) | MIC [7]: 0.016 to 0.25 µg/mL (≈ 0.0214 to 0.334 µM); Mean PAE [8]: 1.86 ± 2 h; MIC50 [9]: 0.12 µg/mL (≈ 0.16 µM); MIC90 [9]: 0.5 µg/mL (≈ 0.668 µM); MIC [9]: 0.016 to 0.5 µg/mL (≈ 0.0214 to 0.668 µM); Mean PAE [10]: 2.91 ± 3 h; MIC50 [11]: 0.03 µg/mL (≈ 0.0401 µM); MIC90 [11]: 0.25 µg/mL (≈ 0.334 µM); MIC [11]: 0.008 to 0.5 µg/mL (≈ 0.0107 to 0.668 µM); MIC50 [12]: 0.06 µg/mL (≈ 0.0801 µM); MIC90 [12]: 0.12 µg/mL (≈ 0.16 µM); MIC [12]: 0.016 to 0.25 µg/mL (≈ 0.0214 to 0.334 µM); MIC50 [13]: 0.06 µg/mL (≈ 0.0801 µM); MIC90 [13]: 0.06 µg/mL (≈ 0.0801 µM); MIC [13]: 0.06 µg/mL (≈ 0.0801 µM); MIC50 [14]: 0.12 µg/mL (≈ 0.16 µM); MIC90 [14]: 0.25 µg/mL (≈ 0.334 µM); MIC [14]: 0.12 to 0.25 µg/mL (≈ 0.16 to 0.334 µM) |
| CC[C@H]1OC(=O)[C@H](C)[C@@H](O[C@H]2C[C@@](C)(OC)[C@@H](O)[C@H](C)O2)[C@H](C)[C@@H](O[C@@H]2O[C@H](C)C[C@H](N(C)C)[C@H]2O)[C@](C)(OC)C[C@@H](C)C(=O)[C@H](C)[C@@H](O)[C@]1(C)O [Clarithromycin] | 0.03 µg/mL (≈ 0.0401 µM) | 0.06 µg/mL (≈ 0.0802 µM) | 0.004 to 0.06 µg/mL (≈ 0.00535 to 0.0802 µM) | 0.06 µg/mL (≈ 0.0802 µM) | 0.06 µg/mL (≈ 0.0802 µM) | 0.008 to 0.06 µg/mL (≈ 0.0107 to 0.0802 µM) | 0.06 µg/mL (≈ 0.0802 µM) | 0.06 µg/mL (≈ 0.0802 µM) | 0.03 to 0.12 µg/mL (≈ 0.0401 to 0.16 µM) | 0.016 µg/mL (≈ 0.0214 µM) | 0.06 µg/mL (≈ 0.0802 µM) | 0.016 to 0.06 µg/mL (≈ 0.0214 to 0.0802 µM) | 0.03 µg/mL (≈ 0.0401 µM) | 0.06 µg/mL (≈ 0.0802 µM) | 0.004 to 0.06 µg/mL (≈ 0.00535 to 0.0802 µM) | 0.06 µg/mL (≈ 0.0802 µM) | 0.004 to 0.12 µg/mL (≈ 0.00535 to 0.16 µM) | 0.06 µg/mL (≈ 0.0802 µM) | 0.03 µg/mL (≈ 0.0401 µM) | 0.06 µg/mL (≈ 0.0802 µM) | MIC [7]: 0.016 to 0.06 µg/mL (≈ 0.0214 to 0.0802 µM); Mean PAE [8]: 0.98 ± 2 h; MIC50 [9]: 0.03 µg/mL (≈ 0.0401 µM); MIC90 [9]: 0.12 µg/mL (≈ 0.16 µM); MIC [9]: 0.004 to 0.12 µg/mL (≈ 0.00535 to 0.16 µM); Mean PAE [10]: 0.72 ± 2 h; MIC50 [11]: 0.03 µg/mL (≈ 0.0401 µM); MIC90 [11]: 0.06 µg/mL (≈ 0.0802 µM); MIC [11]: 0.03 to 0.06 µg/mL (≈ 0.0401 to 0.0802 µM); MIC50 [12]: 0.016 µg/mL (≈ 0.0214 µM); MIC90 [12]: 0.06 µg/mL (≈ 0.0802 µM); MIC [12]: 0.004 to 0.06 µg/mL (≈ 0.00535 to 0.0802 µM); MIC50 [13]: 0.06 µg/mL (≈ 0.0802 µM); MIC90 [13]: 0.06 µg/mL (≈ 0.0802 µM); MIC [13]: 0.06 µg/mL (≈ 0.0802 µM); MIC50 [14]: 0.03 µg/mL (≈ 0.0401 µM); MIC90 [14]: 0.06 µg/mL (≈ 0.0802 µM); MIC [14]: 0.03 to 0.06 µg/mL (≈ 0.0401 to 0.0802 µM) |
